Results taken from patent publication US10093713B2, “GIP-GLP-1 dual agonist compounds and methods” (priority 2013, dated 2018).
Like-named read-outs stand apart in the source and are kept apart here. *1 amine or outer side, *2 acyl side, *3 side chain or, on linkers, in order; H or OH if unused. Where a SMILES comes first, the peptide text is derived from it. Side-chain parts run from the residue outwards. [ ]: non-standard residue; d: D form. The star is where a group is joined. C20 diacid = O=C(O)CCCCCCCCCCCCCCCCCCC(=O)*; γGlu = O=C(O)[C@H](CCC(=O)[*:2])N[*:1]; AEEA = NCCOCCOCC(=O)O; Aib = CC(C)(N)C(=O)O

What was measured:
human GIP R = target: T1, human GIP R (Homo sapiens, UniProt P48546); assay: Human GIP receptor (GIP R) activity assay, cAMP induction (AlphaScreen) in HEK293 cells; format: cell-based; settings: read-out: hGIP-R cAMP EC50 average value
T1 construct: expressed in transfected cells
T1 sequence (P48546 22-466): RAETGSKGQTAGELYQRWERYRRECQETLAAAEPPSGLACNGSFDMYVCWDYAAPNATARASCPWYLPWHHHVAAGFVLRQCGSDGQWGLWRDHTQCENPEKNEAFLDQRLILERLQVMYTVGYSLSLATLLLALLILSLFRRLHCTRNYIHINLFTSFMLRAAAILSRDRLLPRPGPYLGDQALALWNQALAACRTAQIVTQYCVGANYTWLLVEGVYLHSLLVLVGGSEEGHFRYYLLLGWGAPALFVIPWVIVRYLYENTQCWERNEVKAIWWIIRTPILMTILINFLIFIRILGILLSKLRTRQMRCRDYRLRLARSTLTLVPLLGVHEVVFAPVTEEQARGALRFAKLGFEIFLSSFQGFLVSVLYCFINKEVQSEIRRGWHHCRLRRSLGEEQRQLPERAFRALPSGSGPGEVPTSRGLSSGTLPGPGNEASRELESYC
How it was run: (§1)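 Stable HEK293 clones expressing human GIP R or GLP-1 R, seeded 1 day before; cells washed in Tyrode's buffer (10 mM HEPES, pH 7.4), stimulated, then lysed. cAMP measured by AlphaScreen bead competition (1 h, room temperature, dark). EC50 = concentration giving half-maximal cAMP elevation, from curves of absolute cAMP (nM) vs log concentration.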

human GLP-1 R = target: T2, human GLP-1 R (Homo sapiens, UniProt P43220); assay: Human GLP-1 receptor (GLP-1 R) activity assay, cAMP induction (AlphaScreen) in HEK293 cells; format: cell-based; settings: Table 2; HEK293 cells expressing human GLP-1 R; read-out: hGLP1-R cAMP EC50 average value
T2 construct: expressed in transfected cells
How it was run: as §1

[1] = Table 2, HEK293 cells expressing human GIP R
[2] = Table 3, most comprehensive data

T2 sequence (P43220 24-463): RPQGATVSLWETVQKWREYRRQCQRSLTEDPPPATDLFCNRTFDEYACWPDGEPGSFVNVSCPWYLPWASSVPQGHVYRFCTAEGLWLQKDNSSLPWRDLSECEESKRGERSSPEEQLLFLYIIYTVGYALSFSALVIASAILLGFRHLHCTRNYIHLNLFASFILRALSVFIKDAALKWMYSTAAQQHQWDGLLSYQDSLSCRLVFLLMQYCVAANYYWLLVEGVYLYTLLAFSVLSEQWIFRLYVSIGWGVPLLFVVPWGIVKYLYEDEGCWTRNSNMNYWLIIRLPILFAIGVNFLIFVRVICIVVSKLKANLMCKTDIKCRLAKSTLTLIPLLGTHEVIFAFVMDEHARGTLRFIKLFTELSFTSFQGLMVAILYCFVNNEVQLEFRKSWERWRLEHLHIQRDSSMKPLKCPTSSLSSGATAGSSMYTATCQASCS

EC50 (human GIP R; [1]) [nM]	EC50 (human GIP R; [2]) [nM]	EC50 (human GLP-1 R) [nM]	Structure (SMILES)
0.009	0.009	0.011	CC[C@H](C)[C@H](NC(=O)[C@H](CO)NC(=O)[C@H](Cc1ccc(O)cc1)NC(=O)[C@H](CC(=O)O)NC(=O)[C@H](CO)NC(=O)[C@@H](NC(=O)[C@H](Cc1ccccc1)NC(=O)[C@@H](NC(=O)CNC(=O)[C@H](CCC(=O)O)NC(=O)C(C)(C)NC(=O)[C@@H](N)Cc1ccc(O)cc1)[C@@H](C)O)[C@@H](C)O)C(=O)N[C@@H](C)C(=O)N[C@@H](CC(C)C)C(=O)N[C@@H](CCC(=O)O)C(=O)N[C@@H](CCCCN)C(=O)N[C@@H](CCCCNC(=O)COCCOCCNC(=O)COCCOCCNC(=O)CC[C@H](NC(=O)CCCCCCCCCCCCCCCCCCC(=O)O)C(=O)O)C(=O)N[C@@H](C)C(=O)N[C@@H](CCC(N)=O)C(=O)N[C@@H](CCCNC(=N)N)C(=O)N[C@@H](C)C(=O)N[C@@H](Cc1ccccc1)C(=O)N[C@H](C(=O)N[C@@H](CCC(=O)O)C(=O)N[C@@H](Cc1c[nH]c2ccccc12)C(=O)N[C@@H](CC(C)C)C(=O)N[C@@H](CC(C)C)C(=O)N[C@@H](C)C(=O)N[C@@H](CCC(N)=O)C(=O)N[C@@H](CCCCN)C(N)=O)C(C)C [Compound 25] (H-Y[Aib]EGTFTSDYSIALEKK([AEEA-AEEA-γGlu-C20 diacid])AQRAFVEWLLAQK-NH2)
–	0.58	0.014	CC[C@H](C)[C@H](NC(=O)[C@H](CO)NC(=O)[C@H](CC(C)C)NC(=O)[C@H](CC(=O)O)NC(=O)[C@H](CO)NC(=O)[C@@H](NC(=O)[C@H](Cc1ccccc1)NC(=O)[C@@H](NC(=O)CNC(=O)[C@H](CCC(=O)O)NC(=O)C(C)(C)NC(=O)[C@@H](N)Cc1ccc(O)cc1)[C@@H](C)O)[C@@H](C)O)C(=O)N[C@@H](C)C(=O)N[C@@H](CC(C)C)C(=O)N[C@@H](CCC(=O)O)C(=O)N[C@@H](CCCCN)C(=O)N[C@@H](CCCCNC(=O)COCCOCCNC(=O)COCCOCCNC(=O)CC[C@H](NC(=O)CCCCCCCCCCCCCCCCCCC(=O)O)C(=O)O)C(=O)N[C@@H](C)C(=O)N[C@@H](CCC(N)=O)C(=O)N[C@@H](CCCNC(=N)N)C(=O)N[C@@H](C)C(=O)N[C@@H](Cc1ccccc1)C(=O)N[C@H](C(=O)N[C@@H](CCC(=O)O)C(=O)N[C@@H](Cc1c[nH]c2ccccc12)C(=O)N[C@@H](CC(C)C)C(=O)N[C@@H](CCC(=O)O)C(=O)N[C@@H](C)C(=O)N[C@@H](CCC(N)=O)C(=O)N[C@@H](CCCCN)C(N)=O)C(C)C [Compound 26] (H-Y[Aib]EGTFTSDLSIALEKK([AEEA-AEEA-γGlu-C20 diacid])AQRAFVEWLEAQK-NH2)
0.025	–	0.033	CC[C@H](C)[C@H](NC(=O)[C@H](CO)NC(=O)[C@H](Cc1ccc(O)cc1)NC(=O)[C@H](CC(=O)O)NC(=O)[C@H](CO)NC(=O)[C@@H](NC(=O)[C@H](Cc1ccccc1)NC(=O)[C@@H](NC(=O)CNC(=O)[C@H](CCC(=O)O)NC(=O)C(C)(C)NC(=O)[C@@H](N)Cc1ccc(O)cc1)[C@@H](C)O)[C@@H](C)O)C(=O)N[C@@H](Cc1ccc(O)cc1)C(=O)N[C@@H](CC(C)C)C(=O)N[C@@H](CCC(=O)O)C(=O)N[C@@H](CCCCN)C(=O)N[C@@H](CCCCNC(=O)COCCOCCNC(=O)COCCOCCNC(=O)CC[C@H](NC(=O)CCCCCCCCCCCCCCCCCCC(=O)O)C(=O)O)C(=O)N[C@@H](C)C(=O)N[C@@H](CCC(N)=O)C(=O)N[C@@H](CCCNC(=N)N)C(=O)N[C@@H](C)C(=O)N[C@@H](Cc1ccccc1)C(=O)N[C@H](C(=O)N[C@@H](CCC(=O)O)C(=O)N[C@@H](Cc1c[nH]c2ccccc12)C(=O)N[C@@H](CC(C)C)C(=O)N[C@@H](CC(C)C)C(=O)N[C@@H](CCCNC(=N)N)C(=O)N[C@@H](C)C(N)=O)C(C)C [Compound 29] (H-Y[Aib]EGTFTSDYSIYLEKK([AEEA-AEEA-γGlu-C20 diacid])AQRAFVEWLLRA-NH2)
